Reference: PubChem BioAssay AID2060892 (Molecular Pharmacology Branch, DTP, NCI, 2025)

System: HOP-62 complex spheroids with HUVEC/MSC, viability
Test: Anticancer human tumor HOP-62 cell line growth inhibition [RAS];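 also: spheroids exposed to agents for seven days before readout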;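 as to viability, T/C: 100% = DMSO vehicle control viability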
Conditions: for IC50: curve of first compound; for viability, T/C: stronger effect = lower value
From the text: RAS pathway inhibitors in Combinations in Complex Spheroids
A high-throughput screen of multi-cell type tumor spheroids was designed to identify active combinations of RAS pathway inhibitors and targeted small molecules. Complex spheroids include a stromal component modeled by human endothelial cells (HUVEC) and fibroblasts modeled by human mesenchymal stem cells (MSCs). The concentration ranges selected for each drug and investigational agent were based upon clinically achievable concentrations if the clinical Cmax of the agent was known.
Compounds. The drugs and investigational agents: abemaciclib (NSC768073), cobimetinib (NSC768068), divarasib (GDC6063, NSC841802), docetaxel (NSC628503), GDC-1971 (RLY-1971, NSC841576), gemcitabine (NSC613327), inavolisib (NSC800729), ipatasertib (NSC767898), KB-0742 (NSC834161), MRTX-1133 (NSC836407), osimertinib (NSC779217), RMC-4630 (NSC839698), RMC-6236 (NSC851965), RMC-6291 (NSC852671), Ro-3306 (NSC812927), sapanisertib (NSC764658), SN-38 (NSC673596), staurosporine (NSC755774), SY5609 (NSC837396), and tovorafenib (DAY101, NSC766906), were obtained from the National Cancer Institute (NCI) Developmental Therapeutics Program Chemical Repository. The FDA-approved anticancer drug set is available from the NCI Developmental Therapeutics Program. […] The stock solutions were prepared in dimethyl sulfoxide (DMSO, Sigma-Aldrich, St. Louis, MO, cat. D2650) at 800-fold the tested concentration and stored at -70 degrees C prior to their use. All drugs and investigational agents were tested over a range starting from a high concentration at or near the clinical Cmax and decreasing in half-log increments. If the clinical Cmax for an agent had not been determined, the highest concentration tested was 10 microM.
Cell Culture. All cells were maintained in an incubator at 37 degrees C and 5% CO2 with 95% humidity. The PDC lines were cultured according to standard operating procedures established by the NCI PDMR. All PDCs were thawed and cultured in Matrigel-coated flasks prepared with a working solution of 1X Ham's F-12 nutrient mix, without supplementation (Invitrogen, Waltham, MA, cat. 11765054), 100 U/mL penicillin-streptomycin (Invitrogen, cat. 15140122), and 2.5% Matrigel (Corning Inc., Corning, NY, cat. 354248) for the first three passages. The 362531-283-R-J2-PDC and 782815-120-R-J1-PDC lines were cultured in 6C/Colon 1B media, which includes advanced DMEM/F-12 (Thermo Fisher Scientific, cat. 12634028), 10 mM HEPES (Thermo Fisher Scientific, cat. 15630080), 1X GlutaMAX supplement (Thermo Fisher Scientific, cat. 35050061), 0.1 mg/mL primocin (InvivoGen, San Diego, CA, cat. ant-pm-2), 10% defined fetal bovine serum, heat inactivated (HyClone Laboratories Inc., Logan, UT, cat. SH30070.03HI), 50% L-WRN conditioned media (ATCC, cat. CRL-3276), 1.25 mM N-Acetyl-L-cysteine (Sigma-Aldrich, cat. A9165), 10 mM nicotinamide (Sigma-Aldrich, cat. N0636), 1X B-27 supplement (Thermo Fisher Scientific, cat. 17504044), 1X N-2 supplement (Thermo Fisher Scientific, cat. 17502048), 50 ng/mL human EGF (Thermo Fisher Scientific, cat. PHG0311), and 10 microM Y-27632 dihydrochloride (Tocris Bioscience, cat. 1254). The K12877-001-R-J1-PDC line was cultured in 6I media, which includes all 6C/Colon 1B media plus 10 ng/mL human FGF-10 (PeproTech, cat. 100-26), 1 ng/mL human FGF-2 (PeproTech, cat. 100-18B), 1 µM prostaglandin E2 (Tocris Bioscience, cat. 2296), […] hydrocortisone (Sigma-Aldrich, cat. H4001), and […] bovine insulin (Sigma-Aldrich, cat. I6634). The K86415-001-R-J1-PDC line was cultured in 6D media, which includes all 6C/Colon 1B media components minus the L-WRN conditioned media. The 485176-168-R4-J1-PDC was cultured in PANC media, which includes all 6C/Colon 1B media plus 100 ng/mL human FGF-10 (PeproTech, cat. 100-26), 500 nM SB-431542 (Selleckchem, cat. S1067), and 10 nM gastrin (Tocris Bioscience, cat. 3006). […]

[1] = second compound 0.0316 µM, first compound 0.0316 µM
[2] = second compound 0.0316 µM, first compound 0.1 µM
[3] = second compound 0.1 µM, first compound 0.0316 µM
[4] = second compound 0.1 µM, first compound 0.1 µM
[5] = second compound 0.316 µM, first compound 0.0316 µM
[6] = second compound 0.316 µM, first compound 0.1 µM
[7] = second compound 1 µM, first compound 0.0316 µM
[8] = second compound 1 µM, first compound 0.1 µM
[9] = second compound 3.16 µM, first compound 0.0316 µM
[10] = second compound 3.16 µM, first compound 0.1 µM
[11] = second compound 10 µM, first compound 0.0316 µM
[12] = second compound 10 µM, first compound 0.1 µM

In the case of CC(C)NCC(C(=O)N1CCN(c2ncnc3c2C(C)CC3O)CC1)c1ccc(Cl)cc1 (centres undefined) + C#Cc1c(F)ccc2cc(O)cc(-c3ncc4c(N5CC6CCC(C5)N6)nc(OCC56CCCN5CC(F)C6)nc4c3F)c12, the IC50 (second compound 0.0316 µM) is reported as 2440 nM, the IC50 (second compound 0.1 µM) is reported as 2810 nM and the IC50 (second compound 0.316 µM) is reported as 2730 nM. It also gave an IC50 (second compound 1 µM) of 1720 nM, an IC50 (second compound 3.16 µM) of 676 nM and an IC50 (second compound 10 µM) of 62.1 nM. For the same compound, the viability, T/C [1] was 105%, the viability, T/C [2] was 113% and the viability, T/C (second compound 0.0316 µM, first compound 0.316 µM) was 92.2%. It also gave a viability, T/C (second compound 0.0316 µM, first compound 1 µM) of 71.2%, a viability, T/C (second compound 0.0316 µM, first compound 3.16 µM) of 44.6% and a viability, T/C (second compound 0.0316 µM, first compound 10 µM) of 28.3%. It also gave a viability, T/C [3] of 112%, a viability, T/C [4] of 105% and a viability, T/C (second compound 0.1 µM, first compound 0.316 µM) of 99.2%. For the same compound, the viability, T/C (second compound 0.1 µM, first compound 1 µM) was 70%, the viability, T/C (second compound 0.1 µM, first compound 3.16 µM) was 49.8% and the viability, T/C (second compound 0.1 µM, first compound 10 µM) was 28.3%. For the same compound, the viability, T/C [5] was 105%, the viability, T/C [6] was 104% and the viability, T/C (second compound 0.316 µM, first compound 0.316 µM) was 96.3%. For the same compound, the viability, T/C (second compound 0.316 µM, first compound 1 µM) was 73.1%, the viability, T/C (second compound 0.316 µM, first compound 3.16 µM) was 47.5% and the viability, T/C (second compound 0.316 µM, first compound 10 µM) was 27%. It also gave a viability, T/C [7] of 108%, a viability, T/C [8] of 100% and a viability, T/C (second compound 1 µM, first compound 0.316 µM) of 86.5%. It also gave a viability, T/C (second compound 1 µM, first compound 1 µM) of 59.9%, a viability, T/C (second compound 1 µM, first compound 3.16 µM) of 38.5% and a viability, T/C (second compound 1 µM, first compound 10 µM) of 23.5%. For the same compound, the viability, T/C [9] was 72.2%, the viability, T/C [10] was 75% and the viability, T/C (second compound 3.16 µM, first compound 0.316 µM) was 63.9%. For the same compound, the viability, T/C (second compound 3.16 µM, first compound 1 µM) was 41.6%, the viability, T/C (second compound 3.16 µM, first compound 3.16 µM) was 26.1% and the viability, T/C (second compound 3.16 µM, first compound 10 µM) was 16.1%. For the same compound, the viability, T/C [11] was 54.3%, the viability, T/C [12] was 47% and the viability, T/C (second compound 10 µM, first compound 0.316 µM) was 35.2%. The viability, T/C (second compound 10 µM, first compound 1 µM) was 23%, the viability, T/C (second compound 10 µM, first compound 3.16 µM) was 13.7% and the viability, T/C (second compound 10 µM, first compound 10 µM) was 9.15%.

Compound CC(C)n1nc(-c2ccc3oc(N)nc3c2)c2c(N)ncnc21 + C#Cc1c(F)ccc2cc(O)cc(-c3ncc4c(N5CC6CCC(C5)N6)nc(OCC56CCCN5CC(F)C6)nc4c3F)c12 has an IC50 (second compound 0.0316 µM) of 27.8 nM, an IC50 (second compound 0.1 µM) of 28.1 nM and an IC50 (second compound 0.316 µM) of 19.5 nM. The IC50 (second compound 1 µM) was 12.4 nM, the IC50 (second compound 3.16 µM) was 3.75 nM and the IC50 (second compound 10 µM) was < 0.316 nM. The viability, T/C (second compound 0.0316 µM, first compound 0.000316 µM) was 99.2%, the viability, T/C (second compound 0.0316 µM, first compound 0.001 µM) was 99% and the viability, T/C (second compound 0.0316 µM, first compound 0.00316 µM) was 86.8%. For the same compound, the viability, T/C (second compound 0.0316 µM, first compound 0.01 µM) was 73.7%, the viability, T/C [1] was 46.3% and the viability, T/C [2] was 28.3%. The viability, T/C (second compound 0.1 µM, first compound 0.000316 µM) was 110%, the viability, T/C (second compound 0.1 µM, first compound 0.001 µM) was 94.9% and the viability, T/C (second compound 0.1 µM, first compound 0.00316 µM) was 83.9%. For the same compound, the viability, T/C (second compound 0.1 µM, first compound 0.01 µM) was 69.6%, the viability, T/C [3] was 46.9% and the viability, T/C [4] was 26.7%. The viability, T/C (second compound 0.316 µM, first compound 0.000316 µM) was 106%, the viability, T/C (second compound 0.316 µM, first compound 0.001 µM) was 99.3% and the viability, T/C (second compound 0.316 µM, first compound 0.00316 µM) was 79.3%. It also gave a viability, T/C (second compound 0.316 µM, first compound 0.01 µM) of 63.1%, a viability, T/C [5] of 41.1% and a viability, T/C [6] of 26.5%. The viability, T/C (second compound 1 µM, first compound 0.000316 µM) was 106%, the viability, T/C (second compound 1 µM, first compound 0.001 µM) was 89.7% and the viability, T/C (second compound 1 µM, first compound 0.00316 µM) was 70%. It also gave a viability, T/C (second compound 1 µM, first compound 0.01 µM) of 54.6%, a viability, T/C [7] of 36.1% and a viability, T/C [8] of 26.6%. It also gave a viability, T/C (second compound 3.16 µM, first compound 0.000316 µM) of 76.9%, a viability, T/C (second compound 3.16 µM, first compound 0.001 µM) of 67.2% and a viability, T/C (second compound 3.16 µM, first compound 0.00316 µM) of 47.6%. The viability, T/C (second compound 3.16 µM, first compound 0.01 µM) was 37.5%, the viability, T/C [9] was 35.6% and the viability, T/C [10] was 14.4%. For the same compound, the viability, T/C (second compound 10 µM, first compound 0.000316 µM) was 45.7%, the viability, T/C (second compound 10 µM, first compound 0.001 µM) was 32.8% and the viability, T/C (second compound 10 µM, first compound 0.00316 µM) was 28.2%. The viability, T/C (second compound 10 µM, first compound 0.01 µM) was 21.6%, the viability, T/C [11] was 13% and the viability, T/C [12] was 11.6%.
